Assay results published in US12054447B2, “PCNA inhibitors” (City of Hope, priority 2015, dated 2024).

Key:
PBMC = test: Cell growth, CellTitor-Glo assay, 72 h; format: cell-based, human; conditions: Homo sapiens; PBMC (non-malignant)
Protocol: The human NB cell lines, SK-N-DZ, SK-N-BE(2)c, SK-N-AS, and LAN-5 obtained from the American Type Culture Collection (Rockville, MD), were cultured in DMEM with 10% fetal bovine serum (FBS), 100 units/ml penicillin, and 100 μg/ml streptomycin in the presence of 5% CO2 at 37° C. Human PBMCs from a healthy donor were purchased from Sanguine BioSciences (Valencia, CA) and grown in RPMI1640 with 10% FBS, 100 units/ml penicillin, 100 μg/ml streptomycin, and 10 ng/ml IL-2 in the presence of 5% CO2 at 37° C. Human embryonic progenitor cell line 7SM0032 was acquired from Millipore (Billerica, MA) and grown in the hEPM-1 Media Kit purchased from the same company. The plasmid pCBASce expresses the rare cutting I-SceI meganuclease. The U20S-derived cell lines, DR-GFP and EJ5-GFP, each contain a stably transfected reporter gene for DSB repair mediated by HR and end joining (EJ), respectively. These cell lines were cultured in DMEM medium with 10% FBS at 37° C. in the presence of 5% CO2.
To measure the effect of the compounds on cell growth, cells were seeded at 3×10^4/ml into a 96-well plate. Once attached, cells were treated with various concentrations of AOH1160 for 72 h. Cell growth was measured by the CellTitor-Glo assay (Promega, Madison, WI) according to the manufacturer's instructions. To measure apoptosis, cells were seeded at 1×10^5/ml onto a chamber slide. Once attached, cells were treated with the 500 nM AOH1160 for 24 h. Cells were fixed and analyzed by a TUNEL assay using the TMR red in situ cell death detection kit (Roche Diagnostics, Indianapolis, IN).

786-0 = test: NCI-60 panel test; format: cell-based; conditions: Homo sapiens; 786-0, NCI-60 5-dose study
Protocol: (§1) FIG. 7. NCI-60 panel test. The effect of AOH1160 on growth of the NCI-60 panel, which consists of 60 cancer cell lines representing 9 major cancer types, was tested in a 5-dose study. Shown are the Log IC50 values determined for each cell line. […] This study was performed by the National Institute of Cancer.
(§2) As observed in FIG. 7, the effect of AOH1160 on growth of the NCI-60 panel, which consists of 60 cancer cell lines representing 9 major cancer types, was tested in a 5-dose study. Shown are the Log IC50 values determined for each cell line.

A498 = test: NCI-60 panel test; format: cell-based; conditions: Homo sapiens; A498, NCI-60 5-dose study
Protocol: as §1, §2

A549/ATCC = test: NCI-60 panel test; format: cell-based; conditions: Homo sapiens, NCI-60 5-dose study
Protocol: as §1, §2

CCRF-CEM = test: NCI-60 panel test; format: cell-based; conditions: Homo sapiens, NCI-60 5-dose study
Protocol: as §1, §2

COLO 205 = test: NCI-60 panel test; format: cell-based; conditions: Homo sapiens
Protocol: as §1, §2

EKVX = test: NCI-60 panel test; format: cell-based; conditions: Homo sapiens, NCI-60 5-dose study
Protocol: as §1, §2

HCC-2998 = test: NCI-60 panel test; format: cell-based; conditions: Homo sapiens; HCC-2998, NCI-60 5-dose study
Protocol: as §1, §2

HCT-116 = test: NCI-60 panel test; format: cell-based; conditions: Homo sapiens; HCT-116, NCI-60 5-dose study
Protocol: as §1, §2

HCT-15 = test: NCI-60 panel test; format: cell-based; conditions: Homo sapiens; HCT-15, NCI-60 5-dose study
Protocol: as §1, §2

HOP-62 = test: NCI-60 panel test; format: cell-based; conditions: Homo sapiens; HOP-62, NCI-60 5-dose study
Protocol: as §1, §2

HOP-92 = test: NCI-60 panel test; format: cell-based; conditions: Homo sapiens; HOP-92, NCI-60 5-dose study
Protocol: as §1, §2

IGROV1 = test: NCI-60 panel test; format: cell-based; conditions: Homo sapiens, IGROV-1; IGROV1, NCI-60 5-dose study
Protocol: as §1, §2

MCF7 = test: NCI-60 panel test; format: cell-based; conditions: Homo sapiens; MCF7, NCI-60 5-dose study
Protocol: as §1, §2

MDA-MB-231/ATCC = test: NCI-60 panel test; format: cell-based; conditions: Homo sapiens, NCI-60 5-dose study
Protocol: as §1, §2

MDA-MB-435 = test: NCI-60 panel test; format: cell-based; conditions: Homo sapiens; MDA-MB-435, NCI-60 5-dose study
Protocol: as §1, §2

MOLT-4 = test: NCI-60 panel test; format: cell-based; conditions: Homo sapiens; MOLT-4, NCI-60 5-dose study
Protocol: as §1, §2

NCI-H226 = test: NCI-60 panel test; format: cell-based; conditions: Homo sapiens; NCI-H226, NCI-60 5-dose study
Protocol: as §1, §2

NCI-H322M = test: NCI-60 panel test; format: cell-based; conditions: Homo sapiens, NCI-60 5-dose study
Protocol: as §1, §2

PC-3 = test: NCI-60 panel test; format: cell-based; conditions: Homo sapiens; PC-3, NCI-60 5-dose study
Protocol: as §1, §2

SF-268 = test: NCI-60 panel test; format: cell-based; conditions: Homo sapiens
Protocol: as §1, §2

SF-295 = test: NCI-60 panel test; format: cell-based; conditions: Homo sapiens; SF-295, NCI-60 5-dose study
Protocol: as §1, §2

SK-MEL-2 = test: NCI-60 panel test; format: cell-based; conditions: Homo sapiens; SK-MEL-2, NCI-60 5-dose study
Protocol: as §1, §2

SK-OV-3 = test: NCI-60 panel test; format: cell-based; conditions: Homo sapiens; SK-OV-3, NCI-60 5-dose study
Protocol: as §1, §2

SN12C = test: NCI-60 panel test; format: cell-based; conditions: Homo sapiens, NCI-60 5-dose study
Protocol: as §1, §2

SNB-75 = test: NCI-60 panel test; format: cell-based; conditions: Homo sapiens; SNB-75, NCI-60 5-dose study
Protocol: as §1, §2

SR = test: NCI-60 panel test; format: cell-based; conditions: Homo sapiens, NCI-60 5-dose study
Protocol: as §1, §2

TK-10 = test: NCI-60 panel test; format: cell-based; conditions: Homo sapiens; TK-10, NCI-60 5-dose study
Protocol: as §1, §2

UACC-62 = test: NCI-60 panel test; format: cell-based; conditions: Homo sapiens; UACC-62, NCI-60 5-dose study
Protocol: as §1, §2

## O=C(CNC(=O)c1cccc2ccccc12)Nc1ccccc1Oc1ccccc1 [AOH1160]
PBMC
  IC50: > 20000 nM
786-0
  GI50: 447 nM
A498
  GI50: 257 nM
A549/ATCC
  GI50: 457 nM
CCRF-CEM
  GI50: 347 nM
COLO 205
  GI50: 309 nM
EKVX
  GI50: 776 nM
HCC-2998
  GI50: 708 nM
HCT-116
  GI50: 324 nM
HCT-15
  GI50: 245 nM
HOP-62
  GI50: 355 nM
HOP-92
  GI50: 2240 nM
IGROV1
  GI50: 912 nM
MCF7
  GI50: 309 nM
MDA-MB-231/ATCC
  GI50: 977 nM
MDA-MB-435
  GI50: 42.7 nM
MOLT-4
  GI50: 347 nM
NCI-H226
  GI50: 2190 nM
NCI-H322M
  GI50: 631 nM
PC-3
  GI50: 302 nM
SF-268
  GI50: 437 nM
SF-295
  GI50: 251 nM
SK-MEL-2
  GI50: 269 nM
SK-OV-3
  GI50: 398 nM
SN12C
  GI50: 589 nM
SNB-75
  GI50: 229 nM
SR
  GI50: 83.2 nM
TK-10
  GI50: 617 nM
UACC-62
  GI50: 178 nM

## O=C(CNC(=O)c1cccc2ccccc12)Nc1ccccc1Oc1ccc(O)cc1 [PCNA1]
PBMC
  IC50: > 20000 nM
786-0
  GI50: 1050 nM
A498
  GI50: 1020 nM
A549/ATCC
  GI50: 1480 nM
CCRF-CEM
  GI50: 933 nM
COLO 205
  GI50: 794 nM
EKVX
  GI50: 1170 nM
HCC-2998
  GI50: 8910 nM
HCT-116
  GI50: 977 nM
HCT-15
  GI50: 912 nM
HOP-62
  GI50: 1350 nM
HOP-92
  GI50: 25100 nM
IGROV1
  GI50: 2340 nM
MCF7
  GI50: 851 nM
MDA-MB-231/ATCC
  GI50: 3160 nM
MDA-MB-435
  GI50: 162 nM
MOLT-4
  GI50: 1200 nM
NCI-H226
  GI50: 4790 nM
NCI-H322M
  GI50: 1150 nM
PC-3
  GI50: 1320 nM
SF-268
  GI50: 3310 nM
SF-295
  GI50: 617 nM
SK-MEL-2
  GI50: 25100 nM
SK-OV-3
  GI50: 1580 nM
SN12C
  GI50: 2190 nM
SNB-75
  GI50: 589 nM
SR
  GI50: 457 nM
TK-10
  GI50: 17000 nM
UACC-62
  GI50: 1170 nM
